Measured values published in PubChem BioAssay (NCI).
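How tested: cells in 96-well plates exposed to compound for 48 hours at five concentrations. GI50: concentration for 50% inhibition of growth. Definition used: TGI = concentration required for complete inhibition of growth.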

Experiments:
Assay in all cases: NCI tumour cell line growth inhibition, 48 h
[1] = tested on: OVCAR-5 ovarian
[2] = tested on: MDA-N
[3] = tested on: HS 578T breast
[4] = tested on: UACC-257 melanoma
[5] = tested on: OVCAR-8 ovarian
[6] = tested on: SNB-19 CNS
[7] = tested on: CCRF-CEM leukemia
[8] = tested on: DU-145 prostate
[9] = tested on: SK-OV-3 ovarian
[10] = tested on: ACHN renal
[11] = tested on: MALME-3M melanoma
[12] = tested on: SF-539 CNS
[13] = tested on: K-562 leukemia
[14] = tested on: SK-MEL-28 melanoma
[15] = tested on: EKVX NSCLC
[16] = tested on: MCF7 breast
[17] = tested on: M14 melanoma
[18] = tested on: UACC-62 melanoma
[19] = tested on: MOLT-4 leukemia
[20] = tested on: NCI-H226 lung
[21] = tested on: BT-549 breast
[22] = tested on: CAKI-1 renal
[23] = tested on: SK-MEL-5 melanoma
[24] = tested on: MDA-MB-435
[25] = tested on: NCI-H23 lung
[26] = tested on: SF-295 CNS
[27] = tested on: HCT-15 colon
[28] = tested on: 786-0 renal
[29] = tested on: MDA-MB-231 breast
[30] = tested on: RPMI-8226 leukemia
[31] = tested on: SF-268 CNS
[32] = tested on: UO-31 renal
[33] = tested on: COLO 205 colon
[34] = tested on: HOP-62 NSCLC
[35] = tested on: TK-10 renal
[36] = tested on: KM12 colon
[37] = tested on: NCI-H460 lung
[38] = tested on: PC-3 prostate
[39] = tested on: NCI-H522 lung
[40] = tested on: IGROV1 ovarian
[41] = tested on: U251 CNS
[42] = tested on: NCI/ADR-RES ovarian
[43] = tested on: SNB-75 CNS
[44] = tested on: A549 NSCLC
[45] = tested on: SW-620 colon
[46] = tested on: SN12C renal
[47] = tested on: HCT-116 colon
[48] = tested on: RXF 393 renal
[49] = tested on: LOX IMVI melanoma
[50] = tested on: OVCAR-3 ovarian
[51] = tested on: HT29 colon
[52] = tested on: SK-MEL-2 melanoma
[53] = tested on: OVCAR-4 ovarian
[54] = tested on: HCC-2998 colon
[55] = tested on: T-47D breast
[56] = tested on: SR leukemia
[57] = tested on: A498 renal
[58] = tested on: HOP-92 NSCLC
[59] = tested on: HL-60(TB) leukemia

**Q.** Which TGI [1] does the source give for `COC1OC2COC(=O)c3cc(O)c(O)c(O)c3-c3c(cc(O)c(O)c3O)C(=O)OC2C(O)C1O` (centres undefined) here?
**A.** > 100 µM

**Q.** What about the TGI [2] of the same molecule?
**A.** 59.2 µM

**Q.** And the TGI [3]?
**A.** > 100 µM

**Q.** And the TGI [4]?
**A.** > 100 µM

**Q.** And the TGI [5]?
**A.** > 100 µM

**Q.** What about the TGI [6] of the same molecule?
**A.** > 100 µM

**Q.** And the TGI [7]?
**A.** > 100 µM

**Q.** And the TGI [8]?
**A.** > 100 µM

**Q.** What about the TGI [9] of the same molecule?
**A.** > 100 µM

**Q.** What about the TGI [10] of the same molecule?
**A.** > 100 µM

**Q.** What about the TGI [11] of the same molecule?
**A.** > 100 µM

**Q.** And the TGI [12]?
**A.** > 100 µM

**Q.** And the TGI [13]?
**A.** > 100 µM

**Q.** What about the TGI [14] of the same molecule?
**A.** > 100 µM

**Q.** What about the TGI [15] of the same molecule?
**A.** > 100 µM

**Q.** What about the TGI [16] of the same molecule?
**A.** > 100 µM

**Q.** What about the TGI [17] of the same molecule?
**A.** > 100 µM

**Q.** What about the TGI [18] of the same molecule?
**A.** 47.1 µM

**Q.** And the TGI [19]?
**A.** > 100 µM

**Q.** And the TGI [20]?
**A.** > 100 µM

**Q.** What about the TGI [21] of the same molecule?
**A.** > 100 µM

**Q.** What about the TGI [22] of the same molecule?
**A.** > 100 µM

**Q.** And the TGI [23]?
**A.** > 100 µM

**Q.** And the TGI [24]?
**A.** 94.8 µM

**Q.** And the TGI [25]?
**A.** > 100 µM

**Q.** What about the TGI [26] of the same molecule?
**A.** 37.8 µM

**Q.** And the TGI [27]?
**A.** > 100 µM

**Q.** And the TGI [28]?
**A.** > 100 µM

**Q.** What about the TGI [29] of the same molecule?
**A.** > 100 µM

**Q.** What about the TGI [30] of the same molecule?
**A.** > 100 µM

**Q.** And the TGI [31]?
**A.** > 100 µM

**Q.** What about the TGI [32] of the same molecule?
**A.** > 100 µM

**Q.** And the TGI [33]?
**A.** > 100 µM

**Q.** And the TGI [34]?
**A.** > 100 µM

**Q.** And the TGI [35]?
**A.** > 100 µM

**Q.** And the TGI [36]?
**A.** > 100 µM

**Q.** What about the TGI [37] of the same molecule?
**A.** > 100 µM

**Q.** And the TGI [38]?
**A.** > 100 µM

**Q.** And the TGI [39]?
**A.** > 100 µM

**Q.** What about the TGI [40] of the same molecule?
**A.** > 100 µM

**Q.** And the TGI [41]?
**A.** > 100 µM

**Q.** What about the TGI [42] of the same molecule?
**A.** > 100 µM

**Q.** And the TGI [43]?
**A.** > 100 µM

**Q.** What about the TGI [44] of the same molecule?
**A.** > 100 µM

**Q.** What about the TGI [45] of the same molecule?
**A.** 57.9 µM

**Q.** What about the TGI [46] of the same molecule?
**A.** 30.1 µM

**Q.** What about the TGI [47] of the same molecule?
**A.** > 100 µM

**Q.** And the TGI [48]?
**A.** > 100 µM

**Q.** And the TGI [49]?
**A.** 60 µM

**Q.** And the TGI [50]?
**A.** > 100 µM

**Q.** What about the TGI [51] of the same molecule?
**A.** > 100 µM

**Q.** What about the TGI [52] of the same molecule?
**A.** > 100 µM

**Q.** What about the TGI [53] of the same molecule?
**A.** > 100 µM

**Q.** Which results are given for `CC(=O)ON(OCc1ccc2ccccc2c1)C(C)=O`?
**A.** GI50 [1]: > 100 µM; TGI [1]: > 100 µM; GI50 [3]: 55.2 µM; TGI [3]: > 100 µM; GI50 [4]: > 100 µM; TGI [4]: > 100 µM; GI50 [5]: > 100 µM; TGI [5]: > 100 µM; GI50 [6]: > 100 µM; TGI [6]: > 100 µM; GI50 [54]: > 100 µM; TGI [54]: > 100 µM; GI50 [7]: > 100 µM; TGI [7]: > 100 µM; GI50 [8]: > 100 µM; TGI [8]: > 100 µM; GI50 [9]: > 100 µM; TGI [9]: > 100 µM; GI50 [10]: > 100 µM; TGI [10]: > 100 µM; GI50 [11]: > 100 µM; TGI [11]: > 100 µM; GI50 [12]: > 100 µM; TGI [12]: > 100 µM; GI50 [13]: > 100 µM; TGI [13]: > 100 µM; GI50 [14]: > 100 µM; TGI [14]: > 100 µM; GI50 [15]: 32.3 µM; TGI [15]: > 100 µM; GI50 [16]: 96.1 µM; TGI [16]: > 100 µM; GI50 [17]: > 100 µM; TGI [17]: > 100 µM; GI50 [18]: > 100 µM; TGI [18]: > 100 µM; GI50 [19]: > 100 µM; TGI [19]: > 100 µM; GI50 [20]: > 100 µM; TGI [20]: > 100 µM; GI50 [21]: > 100 µM; TGI [21]: > 100 µM; GI50 [22]: > 100 µM; TGI [22]: > 100 µM; GI50 [23]: 94.7 µM; TGI [23]: > 100 µM; GI50 [24]: > 100 µM; TGI [24]: > 100 µM; GI50 [25]: > 100 µM; TGI [25]: > 100 µM; GI50 [55]: > 100 µM; TGI [55]: > 100 µM; GI50 [26]: > 100 µM; TGI [26]: > 100 µM; GI50 [27]: > 100 µM; TGI [27]: > 100 µM; GI50 [28]: > 100 µM; TGI [28]: > 100 µM; GI50 [29]: > 100 µM; TGI [29]: > 100 µM; GI50 [30]: > 100 µM; TGI [30]: > 100 µM; GI50 [31]: > 100 µM; TGI [31]: > 100 µM; GI50 [32]: 85 µM; TGI [32]: > 100 µM; GI50 [33]: > 100 µM; TGI [33]: > 100 µM; GI50 [34]: > 100 µM; TGI [34]: > 100 µM; GI50 [35]: > 100 µM; TGI [35]: > 100 µM; GI50 [56]: 86.5 µM; TGI [56]: > 100 µM; GI50 [36]: > 100 µM; TGI [36]: > 100 µM; GI50 [57]: > 100 µM; TGI [57]: > 100 µM; GI50 [37]: > 100 µM; TGI [37]: > 100 µM; GI50 [38]: > 100 µM; TGI [38]: > 100 µM; GI50 [58]: 34.8 µM; TGI [58]: > 100 µM; GI50 [39]: > 100 µM; TGI [39]: > 100 µM; GI50 [40]: > 100 µM; TGI [40]: > 100 µM; GI50 [41]: > 100 µM; TGI [41]: > 100 µM; GI50 [42]: > 100 µM; TGI [42]: > 100 µM; GI50 [43]: 96.6 µM; TGI [43]: > 100 µM; GI50 [44]: > 100 µM; TGI [44]: > 100 µM; GI50 [45]: > 100 µM; TGI [45]: > 100 µM; GI50 [46]: > 100 µM; TGI [46]: > 100 µM; GI50 [47]: > 100 µM; TGI [47]: > 100 µM; GI50 [48]: > 100 µM; TGI [48]: > 100 µM; GI50 [49]: 85.4 µM; TGI [49]: > 100 µM; GI50 [50]: > 100 µM; TGI [50]: > 100 µM; GI50 [51]: > 100 µM; TGI [51]: > 100 µM; GI50 [52]: > 100 µM; TGI [52]: > 100 µM; GI50 [53]: > 100 µM; TGI [53]: > 100 µM; GI50 [59]: > 100 µM; TGI [59]: > 100 µM
